The values that follow come from patent publication US20100216779A1 (GLAXOSMITHKLINE LLC, priority 2007, published 2010).

By IC50 is commonly meant the midpoint of a concentration-inhibition curve. A high value points to weaker potency in that assay.

Each structure is given as a SMILES string. Bounds are passed on as bounds.

In data set [1] the target is T1, human IGF-1R (NIH-3T3 cells over expressing human IGF-1R) (Homo sapiens, UniProt P08069).
T1 construct: expressed in transfected cells; host or cells: NIH-3T3 (mouse fibroblasts)
T1 sequence (P08069 31-1367): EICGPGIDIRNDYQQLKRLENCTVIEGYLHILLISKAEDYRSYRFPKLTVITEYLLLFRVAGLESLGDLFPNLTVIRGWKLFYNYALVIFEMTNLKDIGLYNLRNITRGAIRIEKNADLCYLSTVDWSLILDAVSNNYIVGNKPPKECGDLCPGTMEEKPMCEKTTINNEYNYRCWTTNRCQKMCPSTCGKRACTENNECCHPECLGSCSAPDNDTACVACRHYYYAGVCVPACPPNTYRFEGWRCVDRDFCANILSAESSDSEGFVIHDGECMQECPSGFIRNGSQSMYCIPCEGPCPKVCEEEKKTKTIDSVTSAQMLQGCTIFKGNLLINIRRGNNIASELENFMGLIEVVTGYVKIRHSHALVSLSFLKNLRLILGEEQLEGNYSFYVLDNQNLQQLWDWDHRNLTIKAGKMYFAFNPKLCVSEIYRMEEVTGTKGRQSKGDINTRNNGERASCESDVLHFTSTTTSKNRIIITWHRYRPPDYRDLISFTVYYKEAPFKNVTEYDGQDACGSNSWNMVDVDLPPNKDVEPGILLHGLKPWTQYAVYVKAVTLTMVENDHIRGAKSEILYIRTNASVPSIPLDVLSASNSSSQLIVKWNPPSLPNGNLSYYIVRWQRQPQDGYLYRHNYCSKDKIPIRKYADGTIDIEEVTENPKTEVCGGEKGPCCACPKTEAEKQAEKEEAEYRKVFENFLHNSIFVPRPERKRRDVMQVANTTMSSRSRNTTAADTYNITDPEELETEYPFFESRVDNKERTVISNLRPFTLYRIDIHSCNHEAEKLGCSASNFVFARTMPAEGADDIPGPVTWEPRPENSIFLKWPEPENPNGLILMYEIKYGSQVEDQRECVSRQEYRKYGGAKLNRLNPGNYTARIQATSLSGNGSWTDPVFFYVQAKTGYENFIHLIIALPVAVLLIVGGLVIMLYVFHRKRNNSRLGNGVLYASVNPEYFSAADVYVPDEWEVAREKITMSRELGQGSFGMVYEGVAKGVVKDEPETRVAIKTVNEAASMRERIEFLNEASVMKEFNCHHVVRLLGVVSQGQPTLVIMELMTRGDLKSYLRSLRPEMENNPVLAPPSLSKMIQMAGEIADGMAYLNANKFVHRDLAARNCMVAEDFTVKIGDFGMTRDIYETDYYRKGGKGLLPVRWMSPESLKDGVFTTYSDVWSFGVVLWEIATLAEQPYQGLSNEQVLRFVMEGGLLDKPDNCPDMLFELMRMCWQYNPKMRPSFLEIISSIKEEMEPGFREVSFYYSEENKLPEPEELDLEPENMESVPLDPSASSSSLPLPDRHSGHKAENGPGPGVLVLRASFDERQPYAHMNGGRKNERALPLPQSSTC
The data set can be described thus: IGF-1R cellular autophosphorylation (DELFIA). In kind it is cell-based. The following applies: IGF-1 stimulated. In a few lines:
(§1)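 Read-out: DELFIA on lysates, receptor-specific capture antibody plus europium-labelled anti-phosphotyrosine, reported as % of IGF-1- or insulin-stimulated signal. Transfected NIH-3T3 cells got compound (30 uM–1.5 nM, 2 h) before a 15 min ligand pulse: IGF-1 30 ng/mL for IGF-1R, insulin 3 ug/mL for IR.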

The test system of data set [2] is NCI-H929 (multiple myeloma). The data set can be described thus: Inhibition of cell proliferation, CellTiter-Glo, NCI-H929. In kind it is cell-based. The following applies: Homo sapiens, 72 h. Put shortly: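 Cells were grown in medium with 10% FBS at 37° C, 5% CO2. Cell number was read as CellTiter-Glo luminescence (cellular ATP), with untreated wells as control.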
(In general: In ATP-based viability assays light output follows the ATP content of the culture.)

The subject of another data set is COLO205 (colon). The data set can be described thus: Inhibition of cell proliferation, CellTiter-Glo, COLO205. The class given is cell-based. The conditions noted are these: Homo sapiens, COLO 205, 72 h. In a few lines:
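Exponentially growing COLO205 cells in medium with 10% FBS were plated below 2000 cells/well at 37 °C, 5% CO2. Untreated wells served as controls.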

In data set [3] the target is T2, IR (NIH-3T3 cells over expressing human IGF-1R or IR) (Homo sapiens, UniProt P06213).
T2 construct: expressed in transfected cells; host or cells: NIH-3T3 (mouse fibroblasts)
T2 sequence (P06213 28-1382): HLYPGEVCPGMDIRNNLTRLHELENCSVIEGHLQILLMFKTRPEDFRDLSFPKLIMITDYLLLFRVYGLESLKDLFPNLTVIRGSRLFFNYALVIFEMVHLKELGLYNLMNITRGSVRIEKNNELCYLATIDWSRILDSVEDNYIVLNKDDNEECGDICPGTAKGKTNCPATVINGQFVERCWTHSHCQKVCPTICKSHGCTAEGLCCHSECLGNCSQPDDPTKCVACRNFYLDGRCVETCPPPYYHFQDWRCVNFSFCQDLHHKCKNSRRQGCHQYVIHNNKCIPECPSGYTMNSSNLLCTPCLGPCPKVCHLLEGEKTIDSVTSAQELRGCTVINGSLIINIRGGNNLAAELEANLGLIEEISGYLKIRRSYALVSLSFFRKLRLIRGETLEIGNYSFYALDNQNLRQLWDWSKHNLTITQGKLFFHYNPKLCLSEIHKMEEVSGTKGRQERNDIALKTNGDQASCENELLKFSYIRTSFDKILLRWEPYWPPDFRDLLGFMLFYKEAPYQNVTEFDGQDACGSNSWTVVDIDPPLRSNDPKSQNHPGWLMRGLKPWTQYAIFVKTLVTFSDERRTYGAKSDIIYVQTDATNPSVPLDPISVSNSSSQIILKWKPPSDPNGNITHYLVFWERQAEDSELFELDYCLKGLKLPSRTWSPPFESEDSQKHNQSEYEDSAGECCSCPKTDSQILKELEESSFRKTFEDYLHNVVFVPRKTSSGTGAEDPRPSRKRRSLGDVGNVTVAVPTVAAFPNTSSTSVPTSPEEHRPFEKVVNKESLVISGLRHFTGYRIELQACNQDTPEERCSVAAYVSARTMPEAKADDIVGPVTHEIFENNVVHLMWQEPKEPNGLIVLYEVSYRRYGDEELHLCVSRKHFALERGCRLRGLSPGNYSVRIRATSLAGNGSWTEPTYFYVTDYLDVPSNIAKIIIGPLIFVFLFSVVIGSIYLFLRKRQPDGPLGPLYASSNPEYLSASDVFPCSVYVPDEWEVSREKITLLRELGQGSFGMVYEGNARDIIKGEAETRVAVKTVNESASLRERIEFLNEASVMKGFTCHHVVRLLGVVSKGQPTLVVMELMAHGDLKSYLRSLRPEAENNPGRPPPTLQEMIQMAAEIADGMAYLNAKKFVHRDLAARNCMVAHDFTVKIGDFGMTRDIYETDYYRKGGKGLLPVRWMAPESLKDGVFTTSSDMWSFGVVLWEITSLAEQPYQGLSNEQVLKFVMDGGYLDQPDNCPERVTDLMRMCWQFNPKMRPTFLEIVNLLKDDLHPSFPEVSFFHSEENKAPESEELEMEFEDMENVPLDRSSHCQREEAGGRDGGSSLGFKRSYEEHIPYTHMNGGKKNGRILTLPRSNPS
The data set can be described thus: IR cellular autophosphorylation (DELFIA). In kind it is cell-based. The conditions noted are these: NIH-3T3 cells over expressing IR, insulin stimulated. Put shortly: as §1

In data set [4] the test system is LISN cell (mouse 3T3 fibroblasts transduced with human IGF-1R) tumors. Briefly: In vivo efficacy, mice bearing LISN cell tumors. The conditions noted are these: LISN. On the procedure:
E. In Vivo Efficacy—Mouse Models
The efficacy of the compounds of Examples 57 and 58 were assessed together in an in vivo efficacy experiment performed on mice bearing LISN cell (mouse 3T3 fibroblasts transduced with human IGF-1R) tumors. Fifty six female nude mice bearing subcutaneous LISN cell tumors were measured for tumor size and body weight and block randomized into seven groups of eight mice with an equal average tumor volume of approximately 200 mm3. Mice were dosed with either vehicle (20% SBE pH3.5), Example 57 or Example 58. The dosing schedules for each compound were based on previous experiments with the compounds and doses chosen to give the highest tumor growth inhibition and a dose response. Example 58 was dosed at 30, 100 and 300 mg/kg QD for 21 days while Example 57 was dosed at 30 mg/kg QD for 21 days, 15 mg/kg BID for 21 days and 30 mg/kg QDx3 days/week for 3 weeks.
The tumors on mice being treated with vehicle grew with the expected exponential growth throughout the 21 day study. […] The lower dose of 30 mg/kg of Example 58 achieved 28% tumor growth inhibition.
The efficacy of the compounds of Examples 237 and 219 were assessed together in an in vivo efficacy experiment performed on mice bearing LISN cell (mouse 3T3 fibroblasts transduced with human IGF-1R) tumors. Sixty four female nude mice bearing subcutaneous LISN cell tumors were measured for tumor size and body weight and block randomized into eight groups of eight mice with an equal average tumor volume of approximately 362 mm^3. Mice were dosed with either vehicle (20% SBE pH3.5), Example 237 or Example 219. The dosing schedules for each compound were based on previous experiments with the compounds and doses chosen to give the highest tumor growth inhibition and a dose response. Example 237 was administered at 30 and 60 mg/kg QD for 21 days and 30 mg/kg BID for 21 days while Example 219 was administered at 50 and 100 mg/kg QD for 21 days, 25 and 50 mg/kg BID for 21 days.
The tumors on mice being treated with vehicle grew with the expected exponential growth throughout the 21 day study. […] The lower dose of 30 mg/kg QD of Example 237 achieved 15% tumor growth inhibition at day 21 (note: 2 animals were euthanized prior to the last measurement). […] This recovered to 3% by the end of dosing and fully recovered after dosing was concluded. […] This recovered fully within 4 days after the completion of dosing.

`COc1cc(N2CCC(N3CCCCC3)CC2)ccc1Nc1nccc(-c2c(-c3cccc(C(=O)Nc4c(F)cccc4F)c3)nc3ccccn23)n1` [Example 22, 3-[3-(2-{[4-(1,4′-bipiperidin-1′-yl)-2-(methyloxy)phenyl]amino}-4-pyrimidinyl)imidazo[1,2-a]pyridin-2-yl]-N-(2,6-difluorophenyl)benzamide]: the IC50 in data set [1] was less than 100 nM; in data set [2] it was less than 250 nM; in the data set with COLO205 (colon), 250 to 1000 nM; in data set [3], less than 100 nM.
For the compound `COc1cc(N2CCC(N3CCN(CCF)CC3)CC2)ccc1Nc1nccc(-c2c(-c3cccc(C(=O)Nc4c(F)cccc4F)c3)nc3ccccn23)n1` [Example 57, N-(2,6-difluorophenyl)-3-[3-(2-{[4-{4-[4-(2-fluoroethyl)-1-piperazinyl]-1-piperidinyl}-2-(methyloxy)phenyl]amino}-4-pyrimidinyl)imidazo[1,2-a]pyridin-2-yl]benzamide], the IC50 in data set [1] is less than 100 nM; in data set [2] it was less than 250 nM; in the data set on COLO205 (colon), 250 to 1000 nM; in data set [3], less than 100 nM. Also, the results for the tumor growth inhibition in data set [4] (15 mg/kg BID for 21 days), in data set [4] (30 mg/kg QD for 21 days) and in data set [4] (30 mg/kg QDx3 days/week for 3 weeks) were 50%, 34% and 69%, respectively. Also, the body weight loss result in data set [4] (30 mg/kg QD and 15 mg/kg BID treated groups) is “no body weight loss”; in data set [4] (30 mg/kg QDx3 days/week for 3 weeks, over the three consecutive days of dosing, recovered in between doses) it was “significant body weight loss”.
